According to US5977133A, “Pyridone antibiotic with improved safety profile” (priority 1998, dated 1999):
Counter-ions that a name gives are not always drawn. Like-named read-outs stand apart in the source and are kept apart here.

Legend:
Format in all cases: cell-based
S. aureus (CiproS) = assay: In vitro MIC, agar dilution; conditions: Staphylococcus aureus
S. aureus (CiproR) = assay: In vitro MIC, agar dilution; conditions: Staphylococcus aureus
S. epidermidis (CiproS) = assay: In vitro MIC, agar dilution; conditions: Staphylococcus epidermidis
S. epidermidis (CiproR) = assay: In vitro MIC, agar dilution; conditions: Staphylococcus epidermidis
S. pneumoniae (PenR) = assay: In vitro MIC, agar dilution; conditions: Streptococcus pneumoniae
S. pyogenes = assay: In vitro MIC, agar dilution; conditions: Streptococcus pyogenes
E. faecium (CiproS) = assay: In vitro MIC, agar dilution; conditions: Enterococcus faecium
E. faecium (CiproR) = assay: In vitro MIC, agar dilution; conditions: Enterococcus faecium; E. faecium (CiproR), 2 isolates; read-out: MIC Range
E. faecium (VanS) = assay: In vitro MIC, agar dilution; conditions: Enterococcus faecium
E. coli = assay: In vitro MIC, agar dilution; conditions: Escherichia coli, 25 isolates
Procedure, shortened: (§1)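 MIC, the lowest compound level without growth versus a drug-free BHI control plate, with faint haze or scattered colonies scored as no growth. About 10^4 CFU was replicator-spotted from 1:100 dilutions, or 1:10 for slow-growing strains, and plates were read after ~20–24 h at 35–37 °C.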

Salmonella spp. = assay: In vitro MIC, agar dilution; conditions: 23 isolates
Procedure, shortened: as §1

Shigella spp. = assay: microbe, parasite or virus in culture; conditions: read-out: MIC Range
Klebsiella spp. = assay: In vitro MIC, agar dilution
C. freundii = assay: In vitro MIC, agar dilution; conditions: Citrobacter freundii
P. mirabilis = assay: In vitro MIC, agar dilution; conditions: Proteus mirabilis
Providencia spp. = assay: In vitro MIC, agar dilution
Enterobacter spp. = assay: In vitro MIC, agar dilution
P. aeruginosa (CiproS) = assay: In vitro MIC, agar dilution; conditions: Pseudomonas aeruginosa, P. aeruginosa (CiproS), 24 isolates
P. aeruginosa (CiproR) = assay: In vitro MIC, agar dilution
B. fragilis = assay: In vitro MIC, agar dilution
C. difficile = assay: In vitro MIC, agar dilution; conditions: C. difficile
H. influenzae = assay: In vitro MIC, agar dilution; conditions: Haemophilus influenzae, H. influenzae, 18 isolates
M. catarrhalis = assay: In vitro MIC, agar dilution; conditions: Moraxella catarrhalis
Legionella spp. = assay: microbe, parasite or virus in culture; conditions: Legionella
M. pneumoniae = assay: In vitro MIC, agar dilution; conditions: Mycoplasmoides pneumoniae; M. pneumoniae, 7 isolates; read-out: MIC Range
N. gonorrhoeae = assay: In vitro MIC, agar dilution; conditions: Neisseria gonorrhoeae
H. pylori = assay: In vitro MIC, agar dilution; conditions: Helicobacter pylori
M. avium = assay: In vitro MIC, agar dilution; conditions: Mycobacterium avium

## CN[C@@H]1CN(c2c(F)cn3c(=O)c(C(=O)O)cc(C4CC4)c3c2C)CC12CC2 [Example 1, 1-cyclopropyl-8-(7(S)-N-methylamino-5-azaspiro[2.4]heptyl)-7-fluoro-9-methyl-4-oxo-4H-guinolizine-3-carboxylic acid hydrochloride]
S. aureus (CiproS)
  MIC90: 0.03 µg/mL
S. aureus (CiproS); S. aureus (CiproS), 21 isolates, read-out: MIC50
  MIC50: 0.015 µg/mL
S. aureus (CiproS); S. aureus (CiproS), 21 isolates, read-out: MIC Range
  MIC: 0.015 to 0.03 µg/mL
S. aureus (CiproR)
  MIC90: 0.5 µg/mL
S. aureus (CiproR); S. aureus (CiproR), 25 isolates, read-out: MIC50
  MIC50: 0.5 µg/mL
S. aureus (CiproR); S. aureus (CiproR), 25 isolates, read-out: MIC Range
  MIC: 0.015 to 0.5 µg/mL
S. epidermidis (CiproS)
  MIC90: 0.03 µg/mL
S. epidermidis (CiproS); S. epidermidis (CiproS), 23 isolates, read-out: MIC50
  MIC50: 0.015 µg/mL
S. epidermidis (CiproS); S. epidermidis (CiproS), 23 isolates, read-out: MIC Range
  MIC: 0.015 to 0.03 µg/mL
S. epidermidis (CiproR)
  MIC90: 0.5 µg/mL
S. epidermidis (CiproR); read-out: MIC Range
  MIC: 0.12 to 2 µg/mL
S. epidermidis (CiproR); S. epidermidis (CiproR), 11 isolates, read-out: MIC50
  MIC50: 0.25 µg/mL
S. pneumoniae (PenR)
  MIC90: 0.06 µg/mL
S. pneumoniae (PenR); S. pneumoniae (PenR), 25 isolates, read-out: MIC50
  MIC50: 0.06 µg/mL
S. pneumoniae (PenR); S. pneumoniae (PenR), 25 isolates, read-out: MIC Range
  MIC: 0.03 to 0.06 µg/mL
S. pyogenes
  MIC50: 0.03 µg/mL
  MIC90: 0.06 µg/mL
S. pyogenes; S. pyogenes, 21 isolates, read-out: MIC Range
  MIC: 0.03 to 0.06 µg/mL
E. faecium (CiproS); read-out: MIC Range
  MIC: 0.25 to 1 µg/mL
E. faecium (CiproS); E. faecium (CiproS), 16 isolates, read-out: MIC50
  MIC50: 0.5 µg/mL
E. faecium (CiproS); E. faecium (CiproS), 16 isolates, read-out: MIC90
  MIC90: 1 µg/mL
E. faecium (CiproR)
  MIC: 0.5 to 4 µg/mL
E. faecium (VanS); read-out: MIC Range
  MIC: 0.12 to 1 µg/mL
E. faecium (VanS); E. faecium (VanS), 11 isolates, read-out: MIC50
  MIC50: 0.5 µg/mL
E. faecium (VanS); E. faecium (VanS), 11 isolates, read-out: MIC90
  MIC90: 1 µg/mL
E. coli
  MIC: 0.004 to 0.015 µg/mL
E. coli; read-out: MIC50
  MIC50: 0.015 µg/mL
E. coli; read-out: MIC90
  MIC90: 0.015 µg/mL
Salmonella spp.
  MIC: 0.004 to 0.12 µg/mL
Salmonella spp.; read-out: MIC50
  MIC50: 0.03 µg/mL
Salmonella spp.; read-out: MIC90
  MIC90: 0.03 µg/mL
Shigella spp.
  MIC: 0.002 to 0.15 µg/mL
Klebsiella spp.; Klebsiella
  MIC90: 0.03 µg/mL
Klebsiella spp.; Klebsiella spp., 29 isolates, read-out: MIC50
  MIC50: 0.015 µg/mL
Klebsiella spp.; Klebsiella spp., 29 isolates, read-out: MIC Range
  MIC: 0.002 to 0.12 µg/mL
C. freundii
  MIC50: 0.03 µg/mL
  MIC90: 0.25 µg/mL
C. freundii; C. freundii, 20 isolates, read-out: MIC Range
  MIC: 0.015 to 0.25 µg/mL
P. mirabilis
  MIC90: 0.12 µg/mL
P. mirabilis; read-out: MIC Range
  MIC: 0.03 to 0.25 µg/mL
P. mirabilis; P. mirabilis, 20 isolates, read-out: MIC50
  MIC50: 0.12 µg/mL
Providencia spp.; Providencia
  MIC90: 0.25 µg/mL
Providencia spp.; Providencia spp., 28 isolates, read-out: MIC50
  MIC50: 0.06 µg/mL
Providencia spp.; Providencia spp., 28 isolates, read-out: MIC Range
  MIC: 0.015 to 1 µg/mL
Enterobacter spp.; Enterobacter
  MIC90: 0.03 µg/mL
Enterobacter spp.; Enterobacter spp., 35 isolates, read-out: MIC50
  MIC50: 0.015 µg/mL
Enterobacter spp.; Enterobacter spp., 35 isolates, read-out: MIC Range
  MIC: 0.008 to 0.12 µg/mL
P. aeruginosa (CiproS); read-out: MIC50
  MIC50: 0.5 µg/mL
P. aeruginosa (CiproS); read-out: MIC90
  MIC90: 2 µg/mL
P. aeruginosa (CiproS); read-out: MIC Range
  MIC: 0.12 to 4 µg/mL
P. aeruginosa (CiproR); Pseudomonas aeruginosa, P. aeruginosa (CiproR), 20 isolates, read-out: MIC50
  MIC50: 8 µg/mL
P. aeruginosa (CiproR); Pseudomonas aeruginosa, P. aeruginosa (CiproR), 20 isolates, read-out: MIC90
  MIC90: 16 µg/mL
P. aeruginosa (CiproR); Pseudomonas aeruginosa, P. aeruginosa (CiproR), 20 isolates, read-out: MIC Range
  MIC: 4 to 32 µg/mL
P. aeruginosa (CiproR); ciprofloxacin resistant P. aeruginosa strains
  MIC90: 16 (g/mL
B. fragilis; B. fragilis, 18 isolates
  MIC90: 0.12 µg/mL
B. fragilis; Bacteroides fragilis, read-out: MIC Range
  MIC: 0.06 to 0.12 µg/mL
B. fragilis; Bacteroides fragilis, B. fragilis, 18 isolates, read-out: MIC50
  MIC50: 0.06 µg/mL
B. fragilis; Bacteroides fragilis, B. fragilis, read-out: MIC90
  MIC90: 0.12 µg/mL
C. difficile; 10 isolates
  MIC90: 0.5 µg/mL
C. difficile; Clostridioides difficile, 10 isolates, read-out: MIC50
  MIC50: 0.5 µg/mL
C. difficile; Clostridioides difficile, 10 isolates, read-out: MIC Range
  MIC: 0.5 µg/mL
C. difficile; Clostridioides difficile, read-out: MIC90
  MIC90: 0.5 µg/mL
H. influenzae; read-out: MIC50
  MIC50: 0.004 µg/mL
H. influenzae; read-out: MIC90
  MIC90: 0.008 µg/mL
H. influenzae; read-out: MIC Range
  MIC: 0.002 to 0.015 µg/mL
M. catarrhalis
  MIC90: 0.03 µg/mL
M. catarrhalis; M. catarrhalis, 18 isolates, read-out: MIC50
  MIC50: 0.015 µg/mL
M. catarrhalis; M. catarrhalis, 18 isolates, read-out: MIC Range
  MIC: 0.008 to 0.03 µg/mL
Legionella spp.
  MIC50: 0.12 µg/mL
  MIC90: 0.25 µg/mL
Legionella spp.; read-out: MIC Range
  MIC: 0.12 to 0.25 µg/mL
M. pneumoniae
  MIC: 0.015 to 0.03 µg/mL
N. gonorrhoeae
  MIC90: 0.004 µg/mL
N. gonorrhoeae; N. gonorrhoeae, 12 isolates, read-out: MIC50
  MIC50: 0.002 µg/mL
N. gonorrhoeae; N. gonorrhoeae, 12 isolates, read-out: MIC Range
  MIC: 0.001 to 0.015 µg/mL
H. pylori
  MIC50: 0.03 µg/mL
  MIC90: 0.03 µg/mL
H. pylori; H. pylori, 17 isolates, read-out: MIC Range
  MIC: 0.008 to 0.03 µg/mL
M. avium; read-out: MIC Range
  MIC: 0.25 to 8 µg/mL
M. avium; M. avium, 20 isolates, read-out: MIC50
  MIC50: 1 µg/mL
M. avium; M. avium, 20 isolates, read-out: MIC90
  MIC90: 4 µg/mL
